The target in test [1] is T1, Peroxisome proliferator-activated receptor alpha (Homo sapiens, UniProt Q07869).
T1 sequence (Q07869 whole entry): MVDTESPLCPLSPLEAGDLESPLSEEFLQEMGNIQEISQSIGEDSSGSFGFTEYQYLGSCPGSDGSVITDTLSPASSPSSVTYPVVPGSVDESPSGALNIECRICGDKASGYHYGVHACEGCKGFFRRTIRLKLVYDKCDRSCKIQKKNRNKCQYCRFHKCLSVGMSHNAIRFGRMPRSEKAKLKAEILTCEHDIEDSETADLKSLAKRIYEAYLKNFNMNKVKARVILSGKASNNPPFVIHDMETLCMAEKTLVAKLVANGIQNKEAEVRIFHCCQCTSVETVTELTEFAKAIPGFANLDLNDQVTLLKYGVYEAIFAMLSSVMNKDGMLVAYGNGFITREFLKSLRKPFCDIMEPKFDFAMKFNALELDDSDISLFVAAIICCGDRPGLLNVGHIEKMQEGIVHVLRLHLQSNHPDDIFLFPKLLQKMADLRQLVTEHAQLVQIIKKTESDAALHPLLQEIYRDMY
Nature of the test: Transactivation of Homo sapiens (human) PPARalpha assessed as luciferase activity by reporter gene assay. For orientation: In a reporter assay the amount or activity of a reporter protein is the signal.

For test [2], the target named is T2, Peroxisome proliferator-activated receptor gamma (Homo sapiens, UniProt P37231).
T2 sequence (P37231 whole entry): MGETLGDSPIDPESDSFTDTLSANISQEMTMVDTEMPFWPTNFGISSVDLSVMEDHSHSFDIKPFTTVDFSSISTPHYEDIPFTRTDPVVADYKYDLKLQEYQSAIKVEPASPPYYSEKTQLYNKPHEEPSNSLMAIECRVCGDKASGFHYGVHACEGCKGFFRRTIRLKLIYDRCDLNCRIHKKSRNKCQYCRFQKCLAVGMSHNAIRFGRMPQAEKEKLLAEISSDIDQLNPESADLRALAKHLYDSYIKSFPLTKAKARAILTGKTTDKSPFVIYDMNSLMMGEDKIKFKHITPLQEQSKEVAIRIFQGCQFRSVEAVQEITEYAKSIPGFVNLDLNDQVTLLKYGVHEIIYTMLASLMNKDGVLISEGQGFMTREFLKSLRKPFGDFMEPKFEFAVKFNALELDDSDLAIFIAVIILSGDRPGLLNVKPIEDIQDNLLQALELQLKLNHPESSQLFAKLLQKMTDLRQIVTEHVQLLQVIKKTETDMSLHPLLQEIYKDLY
Description: Transactivation of Homo sapiens (human) PPARgamma assessed as luciferase activity by reporter gene assay

We go through eight compounds from ChEMBL document CHEMBL3046236, “The application of comparative molecular field analysis for the design of -anilino substituted-3-phenyl propanoic acids as novel PPAR/ dual ligands” (Med Chem Res, 2012).

Broadly, the EC50 is the concentration giving half of the maximal effect.

In the case of `CCO[C@@H](Cc1ccc(OC/C=C(\c2ccccc2)c2ccc(Br)cc2)cc1)C(=O)O`, the EC50 in test [1] was 2190 nM; in test [2], 4270 nM.
Turning to `CCO[C@@H](Cc1ccc(OC/C=C(/c2ccccc2)c2ccc(-c3ccccc3)cc2)cc1)C(=O)O`, the EC50 in test [1] was 891 nM.
`Cc1oc(C2CCCCC2)nc1CCOc1ccc(C[C@H](Oc2ccccc2)C(=O)O)cc1`: the EC50 in test [1] and in test [2] was 1 nM each time.
`CC(C)O[C@@H](Cc1ccc(OCc2noc(-c3cc(C(F)(F)F)cc(C(F)(F)F)c3)n2)cc1)C(=O)O`: the EC50 in test [1] was 3.98 nM; in test [2] it was 31.6 nM.
For `CCO[C@@H](Cc1ccc(OCC=C(c2ccc(C)cc2)c2ccc(C)cc2)cc1)C(=O)O`, the 50% effective concentration (EC50) in test [1] is 692 nM.
Regarding `Cc1sc(-c2ccncc2)nc1CCOc1ccc(C[C@H](Nc2ccccc2C(=O)c2ccccc2)C(=O)O)cc1`, in test [1], the EC50 was above 10000 nM.
On to `CCO[C@@H](Cc1ccc(OC/C=C(/c2ccccc2)c2ccc(F)cc2)cc1)C(=O)O`, for which the figures for the half-maximal effective concentration (EC50) in test [1] and in test [2] were 5250 nM and 8510 nM, respectively.
On to `CC(C)O[C@H](Cc1ccc(OCc2noc(-c3cc(C(F)(F)F)cc(C(F)(F)F)c3)n2)cc1)C(=O)O`, for which the EC50 in test [1] was 2510 nM; in test [2] it was 631 nM.
